Reference: the supplement of paper PMC11208160

Assay: recombinant UMI read abundance after kanamycin selection (control-corrected) (log10(CPM+1)); higher = more efficient recombination; extreme values may be limits of the assay; sequences stand for … in AGTGCAGAGAAAATCGGCCAGTTTTCTCTGCCTGCAGTCCGCATGCCGTGGGACCCCTTGGGTTCTAACCTGTTGCCTAGATTTATGCAGCGGACTGCCTTTCTCCCAAAGTGATAAACCGG…AGGTTGGTTTCACT; site = the 11-nt donor
Procedure, shortened: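 After plating on IPTG (0.07 mM) plus kanamycin, or unselected, in two replicates, recombinant UMIs were PCR-amplified across the donor–target junction and sequenced. The cells were Escherichia coli co-electroporated with a UMI-tagged donor and donor-binding-loop pair library and a target plasmid with a fixed target and T7-inducible IS621 bridge recombinase. Values are log10(CPM+1), with CPM averaged over replicates and scaled by control-derived factors.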
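Also: IS621 bridge recombinase in Escherichia coli cells against a fixed T5 target plasmid.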

| Sequence | recombinant UMI read abundance (log10) |
| --- | --- |
| ATTGGGACATGGACCGGTTTTCCCGGTAATCCGTATTTGGT (site ATTGAGACTAC) | 0.413 |
| GCGACGCCATGGACCGGTTTTCCCGGTAATCCGTATTTGTA (site GCGACGCCTTA) | 0.398 |
| CTCCACACATGGACCGGTTTTCCCGGTAATCCGTATTTGCT (site CTCAACACTAG) | 0 |
| GACAAACCATGGACCGGTTTTCCCGGTAATCCGTATTTGGT (site GACAAACCTGC) | 0 |
| CGAACGACATGGACCGGTTTTCCCGGTAATCCGTATTTGTT (site CGACCGACTAA) | 0.00483 |
| CAATGCTCATGGACCGGTTTTCCCGGTAATCCGTATTTGAA (site CCATGCTCTTT) | 0.461 |
| GAGGTAGCATGGACCGGTTTTCCCGGTAATCCGTATTTGAT (site GAGGTAGCTAT) | 2.43 |
| CCAGGTGCATGGACCGGTTTTCCCGGTAATCCGTATTTGAG (site CCAGGTGCTGT) | 0 |
| CGAGCATCATGGACCGGTTTTCCCGGTAATCCGTATTTGCT (site CGATCATCTAG) | 0 |
| CTAGTATCATGGACCGGTTTTCCCGGTAATCCGTATTTGCC (site CTAGTATCTGT) | 2.66 |
| ATCGACCCATGGACCGGTTTTCCCGGTAATCCGTATTTGTG (site ATCGACCCTCA) | 0.0241 |
| GCTTGCCCATGGACCGGTTTTCCCGGTAATCCGTATTTGCT (site GCTTGCCCTAT) | 0.0783 |
| ACTCGTGCATGGACCGGTTTTCCCGGTAATCCGTATTTGGT (site ACTTGTGCTAC) | 0.839 |
| TCCAGATCATGGACCGGTTTTCCCGGTAATCCGTATTTGGG (site TCCAGATCTCC) | 0 |
| CGATCATCATGGACCGGTTTTCCCGGTAATCCGTATTTGCT (site CGACCCTCTAG) | 0.00441 |
| TGCCACCCATGGACCGGTTTTCCCGGTAATCCGTATTTGTT (site TGCCACCCTAA) | 0.0117 |
| ACACTAGCATGGACCGGTTTTCCCGGTAATCCGTATTTGTG (site ACACTAGCTCA) | 1.62 |
| GAAGATTCATGGACCGGTTTTCCCGGTAATCCGTATTTGTC (site GAAGATTCTTA) | 0.965 |
| ATCCTAGCATGGACCGGTTTTCCCGGTAATCCGTATTTGTT (site ACCCTAGCTAA) | 0.0137 |
| CGATCATCATGGACCGGTTTTCCCGGTAATCCGTATTTGCT (site TGATCCTCTAG) | 0 |
| CTAGTGTCATGGACCGGTTTTCCCGGTAATCCGTATTTGAT (site CTAGTGTCTAT) | 2.25 |
| GGTACAACATGGACCGGTTTTCCCGGTAATCCGTATTTGTA (site GGTTCAACTTA) | 0.0127 |
| ACCTCATCATGGACCGGTTTTCCCGGTAATCCGTATTTGGT (site ACCTCATCTAC) | 0.128 |
| TCATAATCATGGACCGGTTTTCCCGGTAATCCGTATTTGCA (site TCATAATCTTG) | 2.3 |
| TAGAATACATGGACCGGTTTTCCCGGTAATCCGTATTTGCA (site TTGAATACTTG) | 0.27 |

| Sequence | recombinant UMI read abundance (log10) |
| --- | --- |
| TCCACGCCATGGACCGGTTTTCCCGGTAATCCGTATTTGTA (site ACCACGCCTTA) | 0.0141 |
| CCCCACACATGGACCGGTTTTCCCGGTAATCCGTATTTGTA (site CCCCACACTTG) | 0.586 |
| CGATCATCATGGACCGGTTTTCCCGGTAATCCGTATTTGCT (site CGATCGTCTGG) | 0 |
| AGGAAGACATGGACCGGTTTTCCCGGTAATCCGTATTTGTG (site AGGAAGACTCA) | 2.35 |
| GCTACTGCATGGACCGGTTTTCCCGGTAATCCGTATTTGCC (site GCTAGTGCTGG) | 0 |
| GTCCCGACATGGACCGGTTTTCCCGGTAATCCGTATTTGCA (site GTCCCGACTTG) | 1.54 |
| AGGTCAGCATGGACCGGTTTTCCCGGTAATCCGTATTTGGG (site AGATCAGCTCC) | 0.0289 |
| ATCGCTGCATGGACCGGTTTTCCCGGTAATCCGTATTTGCC (site ATCGCTGCTGG) | 2.27 |
| GATCATCCATGGACCGGTTTTCCCGGTAATCCGTATTTGCT (site GATTATCCTAG) | 0 |
| GTCCATGCATGGACCGGTTTTCCCGGTAATCCGTATTTGGT (site GTGCATGCTAC) | 0.0138 |
| GGCCACGCATGGACCGGTTTTCCCGGTAATCCGTATTTGTT (site GGCCACGCTAA) | 0.96 |
| GGCAATCCATGGACCGGTTTTCCCGGTAATCCGTATTTGAG (site GGCAATCCTCT) | 0.41 |
| CGGAATCCATGGACCGGTTTTCCCGGTAATCCGTATTTGTT (site CGGGTTCCTAA) | 0.0107 |
| GATCATCCATGGACCGGTTTTCCCGGTAATCCGTATTTGCT (site GATAATCCTAG) | 0 |
| ATTGTGTCATGGACCGGTTTTCCCGGTAATCCGTATTTGAC (site AATGTGTCTGT) | 0 |
| AATCTCACATGGACCGGTTTTCCCGGTAATCCGTATTTGGA (site AATCTCACTTC) | 0.341 |
| CGCCGTACATGGACCGGTTTTCCCGGTAATCCGTATTTGCT (site CGCCCTACTAG) | 0.301 |
| ATCATGGCATGGACCGGTTTTCCCGGTAATCCGTATTTGCA (site ATCATGGCTTG) | 2.21 |
| TCCACCGCATGGACCGGTTTTCCCGGTAATCCGTATTTGCG (site TCCATCGCTCG) | 0.0351 |
| CTGCTAACATGGACCGGTTTTCCCGGTAATCCGTATTTGGA (site CTACTAACTTC) | 1.16 |
| ACTAGTACATGGACCGGTTTTCCCGGTAATCCGTATTTGAG (site ACTAGCACTCT) | 0.0245 |
| GATGTAACATGGACCGGTTTTCCCGGTAATCCGTATTTGCT (site AATGTAACTAG) | 1.24 |
| AGGATTACATGGACCGGTTTTCCCGGTAATCCGTATTTGAC (site AGGAATACTGT) | 0 |
| TAGACTTCATGGACCGGTTTTCCCGGTAATCCGTATTTGGT (site TAGCCTTCTAC) | 0.0272 |
| CCCTACTCATGGACCGGTTTTCCCGGTAATCCGTATTTGGG (site CCCTACTCTCC) | 0.346 |

| Sequence | recombinant UMI read abundance (log10) |
| --- | --- |
| TCCTATTCATGGACCGGTTTTCCCGGTAATCCGTATTTGCC (site TCCGATTCTGG) | 0 |
| ATTGCCTCATGGACCGGTTTTCCCGGTAATCCGTATTTGCT (site ATTGCCTCTAG) | 2.03 |
| TTTGCGTCATGGACCGGTTTTCCCGGTAATCCGTATTTGCT (site TTTGCGGCTAG) | 0.018 |
| CTGAATCCATGGACCGGTTTTCCCGGTAATCCGTATTTGTT (site CTGAATCCTAA) | 1.5 |
| CCGATAGCATGGACCGGTTTTCCCGGTAATCCGTATTTGTG (site CCGGTAGCTCA) | 0.00966 |
| ACTCGTGCATGGACCGGTTTTCCCGGTAATCCGTATTTGGT (site ACTCGTGCTAC) | 1.07 |
| ATTTCTCCATGGACCGGTTTTCCCGGTAATCCGTATTTGAC (site ATTTCTCCTGT) | 0 |
| AGGAATCCATGGACCGGTTTTCCCGGTAATCCGTATTTGTT (site AGGAATCCTAA) | 0.74 |
| ACAGGAACATGGACCGGTTTTCCCGGTAATCCGTATTTGTC (site ACAAGAACTGA) | 1.18 |
| GTAGGTACATGGACCGGTTTTCCCGGTAATCCGTATTTGCC (site GTAGGTACTGA) | 0.73 |
| AACCGTCCATGGACCGGTTTTCCCGGTAATCCGTATTTGAT (site AAGCGTCCTAT) | 0 |
| ACGAGTGCATGGACCGGTTTTCCCGGTAATCCGTATTTGGT (site ACGAGTGCTAC) | 2.31 |
| GGAGAGGCATGGACCGGTTTTCCCGGTAATCCGTATTTGGT (site GGAGTGGCTAC) | 0.0204 |
| CGTTACACATGGACCGGTTTTCCCGGTAATCCGTATTTGAG (site CGTTACACTCT) | 1.43 |
| GCACAGCCATGGACCGGTTTTCCCGGTAATCCGTATTTGTT (site GCACAGCCTAA) | 1.47 |
| AGAAAGACATGGACCGGTTTTCCCGGTAATCCGTATTTGCT (site AGAAAGACTAG) | 2.1 |
| ACAGCAGCATGGACCGGTTTTCCCGGTAATCCGTATTTGCA (site ACAGCAGCTTG) | 2.49 |
| TAGAGTCCATGGACCGGTTTTCCCGGTAATCCGTATTTGTA (site TACAGTCCTTA) | 0.159 |
| AACAGTCCATGGACCGGTTTTCCCGGTAATCCGTATTTGAT (site AACCGTCCTAT) | 0.00935 |
| CGGAATCCATGGACCGGTTTTCCCGGTAATCCGTATTTGTT (site CGGTATCCTAA) | 0.107 |
| GGTACGCCATGGACCGGTTTTCCCGGTAATCCGTATTTGTT (site GGTACGACTAA) | 0.0526 |
| GTAGTCTCATGGACCGGTTTTCCCGGTAATCCGTATTTGCG (site GTAGTCCCTCG) | 1.12 |
| CCGATATCATGGACCGGTTTTCCCGGTAATCCGTATTTGGC (site CCGATATCTGC) | 0.68 |
| CGATCATCATGGACCGGTTTTCCCGGTAATCCGTATTTGCT (site AGATCATCTAG) | 2.17 |
| GGCGCTACATGGACCGGTTTTCCCGGTAATCCGTATTTGAT (site GGCGCTACTAT) | 0.866 |
